Assays:
[1] = human gut metagenome, 24 h, 2 µM
[2] = The drug is tested on Z-003 corresponding to pig gut metagenome with ENA study accession number: PRJEB37062 and ENA sample accession number: ERS12561803 for biotransformation under anaerobic condition. The drug concentrations were measured over 9 timepoints collected between 0 and 24 hours of incubation by liquid-chromatography-coupled mass spectrometry (LC–MS); conditions: 2 µM
[3] = The drug is tested on Z-011 corresponding to mouse gut metagenome with ENA study accession number: PRJEB37062 and ENA sample accession number: ERS12561811 for biotransformation under anaerobic condition. The drug concentrations were measured over 9 timepoints collected between 0 and 24 hours of incubation by liquid-chromatography-coupled mass spectrometry (LC–MS); conditions: 2 µM
[4] = The drug is tested on Z-013 corresponding to rabbit gut metagenome with ENA study accession number: PRJEB37062 and ENA sample accession number: ERS12561813 for biotransformation under anaerobic condition. The drug concentrations were measured over 9 timepoints collected between 0 and 24 hours of incubation by liquid-chromatography-coupled mass spectrometry (LC–MS); conditions: 2 µM
[5] = human gut metagenome, 24 h, 2 µM; remark: listed apart in the source
[6] = The drug is tested on Z-023 corresponding to metagenome with ENA study accession number: PRJEB37062 and ENA sample accession number: ERS12561822 for biotransformation under anaerobic condition. The drug concentrations were measured over 9 timepoints collected between 0 and 24 hours of incubation by liquid-chromatography-coupled mass spectrometry (LC–MS); conditions: 2 µM
[7] = human gut metagenome, 24 h, 2 µM; remark: listed apart in the source
[8] = The drug is tested on Z-009 corresponding to pig gut metagenome with ENA study accession number: PRJEB37062 and ENA sample accession number: ERS12561809 for biotransformation under anaerobic condition. The drug concentrations were measured over 9 timepoints collected between 0 and 24 hours of incubation by liquid-chromatography-coupled mass spectrometry (LC–MS); conditions: 2 µM
[9] = human gut metagenome, 24 h, 2 µM; remark: listed apart in the source
[10] = human gut metagenome, 24 h, 2 µM; remark: listed apart in the source
[11] = The drug is tested on Z-010 corresponding to metagenome with ENA study accession number: PRJEB37062 and ENA sample accession number: ERS12561810 for biotransformation under anaerobic condition. The drug concentrations were measured over 9 timepoints collected between 0 and 24 hours of incubation by liquid-chromatography-coupled mass spectrometry (LC–MS); conditions: 2 µM
[12] = The drug is tested on WLS-090 corresponding to human gut metagenome with ENA study accession number: PRJEB37062 and ENA sample accession number: ERS12561753 for biotransformation under anaerobic condition. The drug concentrations were measured over 9 timepoints collected between 0 and 24 hours of incubation by liquid-chromatography-coupled mass spectrometry (LC–MS); conditions: 2 µM
[13] = The drug is tested on WLS-240 corresponding to human gut metagenome with ENA study accession number: PRJEB37062 and ENA sample accession number: ERS12561773 for biotransformation under anaerobic condition. The drug concentrations were measured over 9 timepoints collected between 0 and 24 hours of incubation by liquid-chromatography-coupled mass spectrometry (LC–MS); conditions: 2 µM
[14] = human gut metagenome, 24 h, 2 µM; remark: listed apart in the source
[15] = human gut metagenome, 24 h, 2 µM; remark: listed apart in the source
[16] = The drug is tested on Z-030 corresponding to mouse gut metagenome with ENA study accession number: PRJEB37062 and ENA sample accession number: ERS12561829 for biotransformation under anaerobic condition. The drug concentrations were measured over 9 timepoints collected between 0 and 24 hours of incubation by liquid-chromatography-coupled mass spectrometry (LC–MS); conditions: 2 µM
[17] = human gut metagenome, 24 h, 2 µM; remark: listed apart in the source
[18] = The drug is tested on WLS-220 corresponding to human gut metagenome with ENA study accession number: PRJEB37062 and ENA sample accession number: ERS12561769 for biotransformation under anaerobic condition. The drug concentrations were measured over 9 timepoints collected between 0 and 24 hours of incubation by liquid-chromatography-coupled mass spectrometry (LC–MS); conditions: 2 µM
[19] = The drug is tested on Z-025 corresponding to rabbit gut metagenome with ENA study accession number: PRJEB37062 and ENA sample accession number: ERS12561824 for biotransformation under anaerobic condition. The drug concentrations were measured over 9 timepoints collected between 0 and 24 hours of incubation by liquid-chromatography-coupled mass spectrometry (LC–MS); conditions: 2 µM
[20] = The drug is tested on Z-017 corresponding to mouse gut metagenome with ENA study accession number: PRJEB37062 and ENA sample accession number: ERS12561816 for biotransformation under anaerobic condition. The drug concentrations were measured over 9 timepoints collected between 0 and 24 hours of incubation by liquid-chromatography-coupled mass spectrometry (LC–MS); conditions: 2 µM
Also: call rule not given here.

Compound | Bacterial Biotransformation [1] | Bacterial Biotransformation [2] | Bacterial Biotransformation [3] | Bacterial Biotransformation [4] | Bacterial Biotransformation [5] | Bacterial Biotransformation [6] | Bacterial Biotransformation [7] | Bacterial Biotransformation [8] | Bacterial Biotransformation [9] | Bacterial Biotransformation [10] | Bacterial Biotransformation [11] | Bacterial Biotransformation [12] | Bacterial Biotransformation [13] | Bacterial Biotransformation [14] | Bacterial Biotransformation [15] | Bacterial Biotransformation [16] | Bacterial Biotransformation [17] | Bacterial Biotransformation [18] | Bacterial Biotransformation [19] | Bacterial Biotransformation [20]
CSc1ccc2c(c1)C(N1CCN(C)CC1)Cc1ccccc1S2.O=C(O)/C=C\C(=O)O (stereo not given) | Compound NOT metabolized | Compound metabolized | Compound metabolized | Compound metabolized | Compound NOT metabolized | Compound NOT metabolized | Compound NOT metabolized | Compound metabolized | Compound NOT metabolized | Compound NOT metabolized | Compound metabolized | Compound metabolized | Compound NOT metabolized | Compound NOT metabolized | Compound NOT metabolized | Compound NOT metabolized | Compound NOT metabolized |  |  | 
CN1CCC[C@@H]1CCO[C@](C)(c1ccccc1)c1ccc(Cl)cc1.O=C(O)/C=C/C(=O)O [CLEMASTINE FUMARATE] | Compound NOT metabolized | Compound NOT metabolized | Compound NOT metabolized | Compound NOT metabolized | Compound NOT metabolized | Compound NOT metabolized | Compound NOT metabolized | Compound NOT metabolized | Compound NOT metabolized | Compound NOT metabolized | Compound NOT metabolized | Compound NOT metabolized | Compound NOT metabolized | Compound metabolized | Compound metabolized | Compound NOT metabolized | Compound metabolized | Compound NOT metabolized | Compound NOT metabolized | 
CCOC(=O)[C@H](CCc1ccccc1)N[C@@H](C)C(=O)N1CCC[C@H]1C(=O)O.O=C(O)/C=C\C(=O)O [ENALAPRIL MALEATE] | Compound NOT metabolized | Compound NOT metabolized |  |  | Compound NOT metabolized | Compound metabolized | Compound NOT metabolized | Compound metabolized | Compound NOT metabolized | Compound NOT metabolized |  | Compound NOT metabolized | Compound NOT metabolized | Compound NOT metabolized | Compound NOT metabolized | Compound NOT metabolized | Compound NOT metabolized | Compound NOT metabolized | Compound NOT metabolized | 
CN1[C@@H]2CC[C@H]1C[C@@H](OC(=O)[C@H](CO)c1ccccc1)C2 [HYOSCYAMINE] | Compound NOT metabolized |  |  | Compound NOT metabolized | Compound NOT metabolized | Compound NOT metabolized |  | Compound metabolized |  |  |  |  | Compound metabolized | Compound metabolized |  | Compound NOT metabolized |  |  | Compound NOT metabolized | Compound NOT metabolized
COc1ccc(Cc2nccc3cc(OC)c(OC)cc23)cc1OC [PAPAVERINE] | Compound metabolized | Compound metabolized | Compound NOT metabolized | Compound NOT metabolized | Compound NOT metabolized | Compound metabolized | Compound metabolized | Compound metabolized | Compound metabolized |  |  | Compound metabolized |  | Compound metabolized | Compound metabolized | Compound NOT metabolized | Compound metabolized | Compound metabolized | Compound metabolized | Compound NOT metabolized
O=C1C(CC[S+]([O-])c2ccccc2)C(=O)N(c2ccccc2)N1c1ccccc1 (stereo not given) [SULFINPYRAZONE] | Compound metabolized | Compound metabolized | Compound NOT metabolized | Compound NOT metabolized | Compound metabolized | Compound metabolized | Compound metabolized | Compound metabolized | Compound metabolized | Compound metabolized |  | Compound metabolized | Compound metabolized | Compound metabolized | Compound metabolized | Compound NOT metabolized | Compound metabolized | Compound metabolized | Compound NOT metabolized | Compound NOT metabolized
CCCCCNC(=N)N/N=C/c1c[nH]c2ccc(OC)cc12.O=C(O)/C=C\C(=O)O [TEGASEROD MALEATE] |  | Compound NOT metabolized | Compound NOT metabolized | Compound NOT metabolized | Compound NOT metabolized | Compound metabolized | Compound NOT metabolized | Compound metabolized | Compound metabolized | Compound NOT metabolized | Compound metabolized | Compound metabolized | Compound NOT metabolized |  | Compound metabolized | Compound NOT metabolized | Compound NOT metabolized | Compound NOT metabolized |  | Compound NOT metabolized
